Like-named read-outs stand apart in the source and are kept apart here.
Tests used:
[1] = tested on: Aphis gossypii; test: Critical Concentration/Root-systemic Action; format: in vivo; conditions: 20 ppm (mg/l soil); root-systemic action, cucumber plants
Description: (§1) To produce a suitable preparation of active compound, 1 part by weight of active compound is mixed with the stated amounts of solvent and emulsifier, and the concentrate is diluted with water to the desired concentration.
The preparation of active compound is intimately mixed with soil. The concentration of the active compound in the preparation is of practically no importance here, only the amount by weight of active compound per unit volume of soil, which is given in ppm (=mg/l), being decisive. The treated soil is transferred into pots and these are planted with cucumber plants at the cotyledon stage. In this way, the active compound can be taken up from the plant and be transported into the leaves.
After a further 7 days, evaluation is carried out by counting or estimating the dead animals. The root-systemic action of the active compound is deduced from the mortality figures. It is 100% if all test animals have been killed and 0% if just as many test insects are still alive as in the case of the untreated controls.

[2] = tested on: cotton aphid (Aphis gossypii); test: Aphis gossypii Test; format: in vivo; conditions: 144 h, read-out: Kill rate in % after 6d
Description: (§2) To produce a suitable preparation of active compound, 1 part by weight of active compound is mixed with the stated amounts of solvent and emulsifier, and the concentrate is diluted with emulsifier-containing water to the desired concentration.
Cotton leaves (Gossypium hirsutum) which are heavily infested by the cotton aphid (Aphis gossypii) are treated by being dipped into the preparation of active compound of the desired concentration.
(§3) After the desired period of time, the kill in % is determined. 100% means that all aphids have been killed; 0% means that none of the aphids have been killed.

[3] = tested on: Meloidogyne incognita; test: Meloidogyne Test; format: in vivo; conditions: 20 ppm, nematicidal action by gall formation on lettuce
Description: as §1
Containers are filled with sand, solution of active compound, Meloidogyne incognita egg/larvae suspension and lettuce seeds. The lettuce seeds germinate and the plants develop. On the roots, galls are formed.
After the desired period of time, the nematicidal action is determined in % by the gall formation. 100% means that no galls were found; 0% means that the number of galls on the treated plants corresponds to that of the untreated control.
The amount of solvent, amount of emulsifier, active compounds, active compound concentrations and test results are shown in the Tables below.

[4] = tested on: green peach aphids (Myzus persicae); test: Myzus Test/Broad Beans; format: in vivo; conditions: broad bean seedlings dipped
Description: To produce a suitable preparation of active compound, 1 part by weight of active compound is mixed with the stated amount of solvent and the stated amount of emulsifier, and the concentrate is diluted with emulsifier-containing water to the desired concentrations.
Broad bean (Vicia faba minor) seedlings which are infested by green peach aphids (Myzus persicae) are dipped into a preparation of active compound of the desired concentration and placed into a plastic box.
After the desired period of time, the kill in % is determined. 100% means that all animals have been killed; 0% means that none of the animals have been killed.

[5] = tested on: larvae of the mustard beetle (Phaedon cochlearae); test: Phaedon Larvae Test; format: in vivo; conditions: 500 ppm; cabbage leaves dipped
Description: [table] To produce a suitable preparation of active compound, 1 part by weight of active compound is mixed with the stated amounts of solvent and emulsifier, and the concentrate is diluted with emulsifier-containing water to the desired concentration. Cabbage leaves (Brassica oleracea) are treated by being dipped into the preparation of active compound of the desired concentration and are populated with larvae of the mustard beetle (Phaedon cochlearae) while the leaves are still moist.

[6] = Aust. J. Chem. 1980, 33, 2291–2298; cited from earlier work
[7] = tested on: peach aphids (Myzus persicae); test: Myzus Test/Cabbage; format: in vivo; conditions: 144 h, read-out: Kill rate in % after 6d
Description: as §2
Cabbage leaves (Brassica oleracea) which are heavily infested by peach aphids (Myzus persicae) are treated by being dipped into the preparation of active compound of the desired concentration.
as §3
Amounts of solvent, amounts of emulsifier, active compounds, active compound concentrations and test results are shown in the Tables below.

[8] = Table A 2, emulsifier 2 parts by weight
[9] = 500 ppm, Table B 2, cabbage leaves dipped

## CCOC(=O)CSc1nccc(-n2cccn2)n1 [drawing 197]
[1]
  Kill rate in % 7d after infection: 90%

## CCOC(=O)CSc1nccc(-n2cc(SC(F)(F)C(F)F)cn2)n1 [drawing 206]
[2]; 500 ppm, cotton leaves dipped
  pest or weed control at 500 ppm: 90%

## COC(=O)CSc1nccc(-n2cc(C)cn2)n1 [drawing 167]
[3]; Table A 1, emulsifier 1 part by weight
  Kill rate in % after 14d: 90%

## O=C(O)CSc1nccc(-n2cc(Cl)cn2)n1 [drawing 172]
[3]; [8]
  Kill rate in % after 14d: 85%

## COC(=O)CSc1nccc(-n2cc(Br)cn2)n1 [drawing 195]
[4]; 100 ppm
  Kill rate in % after 6d: 100%

## CCOC(=O)CN(C)c1nccc(-n2cccn2)n1 [drawing 198]
[2]; 500 ppm, cotton leaves dipped
  pest or weed control at 500 ppm: 99%

## CCOC(=O)CSc1nccc(-n2cc(Cl)cn2)n1 [drawing 169]
[3]; [8]
  Kill rate in % after 14d: 100%

## COc1cnn(-c2ccnc(SCC(=O)OCC(F)(F)F)n2)c1 [drawing 205]
[2]; 500 ppm, cotton leaves dipped
  pest or weed control at 500 ppm: 100%

## CC(OC(=O)CSc1nccc(-n2cc(Cl)cn2)n1)C(F)(F)C(F)(F)C(F)(F)F (stereo not shown) [drawing 204]
[2]
  pest or weed control at 500 ppm: 90%

## COC(=O)CSc1nccc(-n2cc(C)cn2)n1 [drawing 194]
[4]; 500 ppm
  Kill rate in % after 6d: 100%

## CCOC(=O)CSc1nccc(-n2ccc(C(C)=O)n2)n1
[3]; [8]
  Kill rate in % after 14d: 80%

## CCOC(=O)CSc1nccc(-n2cc(-c3ccccc3)cn2)n1 [drawing 207]
[5]
  Kill rate in % after 7d: 100%

## Cc1cc(C)n(-c2ccnc(SCC(N)=O)n2)n1 [2-{[4-(3,5-dimethyl-1H-pyrazol-1-yl)-2-pyrimidinyl]thio}acetamide]
[6]
  enhancing effect on phleomycin: no enhancing effect

## CCOC(=O)CSc1nccc(-n2cc(C(F)(F)F)cn2)n1 [drawing 201]
[2]; 500 ppm, cotton leaves dipped
  pest or weed control at 500 ppm: 95%

## O=C(O)CSc1nccc(-n2cc(-c3ccc(Cl)cc3)cn2)n1
[3]; [8]
  Kill rate in % after 14d: 80%

## C#Cc1cnn(-c2ccnc(SCC(=O)OCC)n2)c1 [drawing 171]
[3]; [8]
  Kill rate in % after 14d: 90%

## C=Cc1cnn(-c2ccnc(SCC(=O)OCC)n2)c1 [drawing 173]
[3]; [8]
  Kill rate in % after 14d: 80%

## CCOC(=O)CSc1nccc(-n2cc(C)cn2)n1 [drawing 196]
[4]; 500 ppm
  Kill rate in % after 6d: 99%

## O=C(O)CSc1nccc(-n2cc(-c3ccccc3)cn2)n1
[5]
  Kill rate in % after 7d: 100%

## CN(CC(=O)OCC(F)(F)C(F)(F)C(F)(F)F)c1nccc(-n2cc(Cl)cn2)n1 [drawing 202]
[2]
  pest or weed control at 500 ppm: 95%

## O=C(CSc1nccc(-n2cc(Cl)cn2)n1)OCC(F)(F)C(F)(F)C(F)(F)F
[2]
  pest or weed control at 500 ppm: 99%

## CCOC(=O)CSc1nccc(-n2cc(-c3ccccc3)cn2)n1 [drawing 177]
[7]; [9]
  pest or weed control at 500 ppm: 100%

## CN(CC(=O)OCC(F)(F)C(F)(F)C(F)(F)F)c1nccc(-n2cc(Cl)cn2)n1 [drawing 189]
[7]
  pest or weed control at 500 ppm: 100%

## CCOC(=O)CSc1nccc(-n2cc(OC)cn2)n1
[2]; 500 ppm, cotton leaves dipped
  pest or weed control at 500 ppm: 95%

## O=C(O)CSc1nccc(-n2cc(Br)cn2)n1 [drawing 186]
[7]; [9]
  pest or weed control at 500 ppm: 100%

Source: patent US7087616B2, “Pyrazolyl pyrimidines” (Bayer CropScience AG, priority 2001, dated 2006)
